Measured values from PubChem BioAssay AID1996.
In brackets after ≈: the same amount, converted by molar mass.

Conditions: buffer; pH 7.4; 200.0 µM
In the case of CC1CCC(N(C)C2CCN(C)CC2)CC1 (configuration not stated), the solubility kinetic is reported as 22.4 µg/mL (≈ 99.8 µM). For COc1cc2[nH]c(=S)n(Cc3ccc(C)cc3)c(=O)c2cc1OC, the solubility kinetic was less than 0.4 µg/mL. Work on Cc1cc(C)c(OCCOCCN2CCCC2)c(C)c1 yielded a solubility kinetic of 30.2 µg/mL (≈ 109 µM). Work on O=C(COc1ccc(Cl)cc1Br)OCC(=O)c1ccc[nH]1 yielded a solubility kinetic of 6 µg/mL (≈ 16.1 µM). Compound CC(C)CC(OC(=O)c1ccco1)C(=O)NC1CCCC1 (configuration not stated) has a solubility kinetic of 41.1 µg/mL (≈ 140 µM). CCOC(=O)c1cc2cc([N+](=O)[O-])ccc2oc1=O gave a solubility kinetic of 18.9 µg/mL (≈ 71.8 µM). Compound Cc1cccc(OCC(=O)Nc2ccc3c(c2)C(=O)NC3=O)c1 has a solubility kinetic of 1.3 µg/mL (≈ 4.19 µM). Compound c1ccc2[nH]c(SCC3CCCCO3)nc2c1 (configuration not stated) has a solubility kinetic greater than 37.3 µg/mL. CCC(=O)N(Cc1cc(=O)[nH]c2ccccc12)c1ccc(C)cc1 gave a solubility kinetic greater than 48.1 µg/mL. For COc1ccccc1C(=O)Nc1nc2ccccc2[nH]1, the solubility kinetic was 4.2 µg/mL (≈ 15.7 µM). Compound Cc1ccc(NC(=O)CNC(=O)c2cccc(C)c2)nc1 has a solubility kinetic greater than 42.5 µg/mL. With O=c1[nH]c2cc(S(=O)(=O)CCO)ccc2o1 the solubility kinetic was 32.4 µg/mL (≈ 133 µM). Compound Cc1cc(NC(=O)CSc2nccn2-c2ccc([N+](=O)[O-])cc2)no1 has a solubility kinetic of 33.8 µg/mL (≈ 94.1 µM). Compound O=[N+]([O-])c1ccccc1/C=C/CN1CCCC(CO)C1 (configuration not stated) has a solubility kinetic of 33.2 µg/mL (≈ 120 µM). Compound CCC(NC(=S)NCc1ccc(F)cc1)c1ccccc1 (configuration not stated) has a solubility kinetic of 3.4 µg/mL (≈ 11.2 µM). Work on O=C(CSc1cc(Cl)ccc1Cl)NC1CCCC1 yielded a solubility kinetic of 3.6 µg/mL (≈ 11.8 µM). Work on Cc1nc(C)c(C(=O)OCC(=O)Nc2cccc(C)c2C)s1 yielded a solubility kinetic of 39.7 µg/mL (≈ 125 µM). With C/C(=N\OCC(=O)NC(C)C)c1cccs1 the solubility kinetic was 32.5 µg/mL (≈ 135 µM). CCOc1ncccc1C(=O)NCCCSc1ccccc1 gave a solubility kinetic of 34.2 µg/mL (≈ 108 µM). O=C(CSc1cccc[n+]1[O-])N1CCCCCC1 gave a solubility kinetic of 27 µg/mL (≈ 101 µM). Work on COc1ccccc1NC(=O)NCCc1c[nH]c2ccccc12 yielded a solubility kinetic of 41.1 µg/mL (≈ 133 µM). For O=C(NC(=S)Nc1ccccc1Br)C1CCCCC1, the solubility kinetic was 2.2 µg/mL (≈ 6.45 µM). With CCN1/C(=C/C(=S)Nc2ccccc2)Sc2ccccc21 the solubility kinetic was 6.7 µg/mL (≈ 21.4 µM). Compound COc1cc2c(cc1OC)C(NC(=O)C(F)(F)F)CNC2=O (configuration not stated) has a solubility kinetic greater than 47.7 µg/mL. Work on Cc1ccc(C2(c3noc(CN4CCOCC4)n3)CCCC2)cc1 yielded a solubility kinetic of 41.3 µg/mL (≈ 126 µM). Work on COc1cc(/C=C/C(=O)OCC(=O)NCC2CCCCC2)ccc1O yielded a solubility kinetic greater than 52.1 µg/mL. For COc1ccc(/C=N/Nc2nc(C)cc(=O)[nH]2)cc1OC, the solubility kinetic was greater than 43.2 µg/mL. Work on O=c1nc2n(c3cccc(Cl)c13)CCCCC2 yielded a solubility kinetic of 31 µg/mL (≈ 125 µM). For O=C(O)Cn1c(=O)c2cccn2c2ccccc21, the solubility kinetic was greater than 36.3 µg/mL. For CC(OC(=O)c1ccc(O)cc1)C(=O)Nc1ccc(Oc2ccccc2)cc1 (configuration not stated), the solubility kinetic was 5 µg/mL (≈ 13.2 µM). In the case of O=C1NC2(CCCCCC2)C(=O)N1Cc1cccc(Cl)c1, the solubility kinetic is reported as 15.8 µg/mL (≈ 51.5 µM). For Cn1c(-c2ccccc2)cc2ccccc21, the solubility kinetic was 0.6 µg/mL (≈ 2.89 µM). CC(O)Cn1c(N2CCCC2)nc2c1c(=O)n(C)c(=O)n2C (configuration not stated) gave a solubility kinetic greater than 46.1 µg/mL. With CC1CC2(C)CC(C)C1(COC(=O)Nc1ccccc1)CO2 (configuration not stated) the solubility kinetic was 44.6 µg/mL (≈ 147 µM). Compound Cc1c(C(=O)N(C)Cc2ccccc2)oc2c(Cl)cccc12 has a solubility kinetic of 8.4 µg/mL (≈ 26.8 µM). With CCCN(CCC)S(=O)(=O)c1cccc(-c2csc(C)n2)c1 the solubility kinetic was 8 µg/mL (≈ 23.6 µM). NC(=O)C1CCN(c2ccc(S(=O)(=O)N3CCCCC3)cc2[N+](=O)[O-])CC1 showed a solubility kinetic of 7.6 µg/mL (≈ 19.2 µM). In the case of COc1ccc(NC(=O)N2CCCCCC2)c(OC)c1, the solubility kinetic is reported as greater than 41.8 µg/mL. O=C(CCCNC(=O)c1ccc(Cl)cc1)Nc1nccs1 gave a solubility kinetic of 10.3 µg/mL (≈ 31.8 µM). Work on CN(CC(=O)Nc1ccc(Cl)c(Cl)c1)C(=O)C1CCC1 yielded a solubility kinetic greater than 47.3 µg/mL. With C=CCn1c(=O)c2c(nc3n2CCCN3Cc2ccccc2)n(C)c1=O the solubility kinetic was 19.5 µg/mL (≈ 55.5 µM). CCCCOc1cc(C(=O)NCCN(CC)CC)c2ccccc2n1 showed a solubility kinetic greater than 51.5 µg/mL. With CCc1ccc(C(=O)CN2C(=O)NC3(CCc4ccccc43)C2=O)cc1 (configuration not stated) the solubility kinetic was 6.5 µg/mL (≈ 18.7 µM). With COc1cc(C(=O)Nc2ccc(Nc3ccccc3)cc2)cc(OC)c1OC the solubility kinetic was 4.4 µg/mL (≈ 11.6 µM). O=C1NC(=O)C(Sc2ccccc2[N+](=O)[O-])C(=O)N1 gave a solubility kinetic greater than 42.2 µg/mL. CCC(C)c1ccccc1NC(=O)COC(=O)C1=NN(c2ccccc2)C(=O)CC1 (configuration not stated) showed a solubility kinetic greater than 61.1 µg/mL. In the case of CC(=O)c1cc(C#N)c(SCc2ccccn2)nc1C, the solubility kinetic is reported as 10.2 µg/mL (≈ 36 µM). Cc1cccc(CSCc2ccc(C(=O)NC3CCCC3)o2)c1 showed a solubility kinetic of 25.6 µg/mL (≈ 77.7 µM). Cc1ccc(NC(=O)N2CCCC2C(=O)NCC2CCCO2)cc1 (configuration not stated) showed a solubility kinetic greater than 49.7 µg/mL. With CN=C(C)/C(C(=O)OC)=C(/O)c1ccccc1F the solubility kinetic was 32.3 µg/mL (≈ 129 µM). For C=CCN1C(=S)CC(c2ccccc2)=Nc2ccccc21, the solubility kinetic was 3.3 µg/mL (≈ 11.3 µM). For CCCOc1ccc(-c2nc[nH]c2[N+](=O)[O-])cc1, the solubility kinetic was 0.5 µg/mL (≈ 2.02 µM). Work on Cc1ccc(OCC(=O)NCCCNC(=O)c2cccnc2)cc1C yielded a solubility kinetic greater than 51.2 µg/mL. For CSc1ccc(S(=O)(=O)Nc2ccc3c(c2)NC(=O)CC3)cc1, the solubility kinetic was 8 µg/mL (≈ 23 µM). With COc1ccc(NC(=O)c2ccc3c(c2)NC(=O)CS3)cc1 the solubility kinetic was 10.8 µg/mL (≈ 34.4 µM). Cn1cc(S(=O)(=O)Nc2ccc(OC(F)(F)F)cc2)c(=O)n(C)c1=O gave a solubility kinetic greater than 56.9 µg/mL. Work on O=C(NCc1ccccc1Cl)c1ccc(Br)o1 yielded a solubility kinetic of 41.9 µg/mL (≈ 133 µM). With CC1(c2ccccc2)CC(c2ccccc2)=Nc2ccccc2N1 (configuration not stated) the solubility kinetic was 5.8 µg/mL (≈ 18.6 µM). Work on Cc1ccc(S(=O)(=O)N2CCC3(CC2)OCCO3)s1 yielded a solubility kinetic greater than 45.5 µg/mL. With O=S(=O)(Nc1ccc(Cl)cc1)c1ccc2c(c1)CCO2 the solubility kinetic was greater than 46.5 µg/mL. Compound CC(C)c1ccc(S(=O)(=O)c2cnc(=S)[nH]c2N)cc1 has a solubility kinetic of 0.9 µg/mL (≈ 2.91 µM). CC(=O)Nc1ccc(S(=O)(=O)Nc2nccc(C)n2)cc1 showed a solubility kinetic greater than 46 µg/mL. Compound COC(=O)c1ccc(CO/N=C/c2ccc(OC)cc2OC)cc1 has a solubility kinetic of less than 0.7 µg/mL. Cc1nc(SCC(=O)NCC2CCCO2)c2c(C)c(C)sc2n1 (configuration not stated) gave a solubility kinetic greater than 52.7 µg/mL. Compound Cc1ccc(NC(=O)NCCCN2CCCC2=O)cc1C has a solubility kinetic greater than 43.4 µg/mL. With CCCCCCC(=O)Nc1ccc(S(=O)(=O)Nc2onc(C)c2C)cc1 the solubility kinetic was greater than 56.9 µg/mL. For COc1ccccc1NC(=O)/C=C\c1ccco1, the solubility kinetic was 25.8 µg/mL (≈ 106 µM). Cc1ccc(S(=O)(=O)CC(=O)Nc2ccccn2)cc1 showed a solubility kinetic of 42.3 µg/mL (≈ 146 µM). In the case of CS(=O)(=O)c1ccc(NCCc2ccccn2)c([N+](=O)[O-])c1, the solubility kinetic is reported as 44.2 µg/mL (≈ 138 µM). Work on Cc1cc(Cl)ccc1NC(=O)Cn1cncn1 yielded a solubility kinetic greater than 37.6 µg/mL. Cc1ccc(OCC(=O)NCCCNC(=O)c2ccccn2)cc1C gave a solubility kinetic of 45.4 µg/mL (≈ 133 µM). Compound CC(=O)c1cccc(N=Cc2c(O)c3ccccc3oc2=O)c1 has a solubility kinetic of 11.2 µg/mL (≈ 36.4 µM). CC1(C)Cc2nc3scc(NC(=O)c4ccccc4)c3cc2CO1 showed a solubility kinetic of 5.9 µg/mL (≈ 17.4 µM). In the case of C[N+](C)(C)c1ccccc1.[I-], the solubility kinetic is reported as greater than 39.5 µg/mL. Work on COc1ccc(CNc2ncnc3sccc23)cc1 yielded a solubility kinetic greater than 40.7 µg/mL. CCOC(=O)Cc1cc(C)[nH]c1C(=O)OCC gave a solubility kinetic of 34.7 µg/mL (≈ 145 µM). CCOc1ccc2nc(NCCNC(=O)C(C)(C)C)c(C)cc2c1 gave a solubility kinetic of 47.1 µg/mL (≈ 143 µM). Work on CC(=O)NC(c1cccc([N+](=O)[O-])c1)c1ccc2cccnc2c1O (configuration not stated) yielded a solubility kinetic of 3.5 µg/mL (≈ 10.4 µM). Work on COc1ccccc1CNC(=O)COC(=O)c1ccc(S(=O)(=O)N2CCCCC2)cc1 yielded a solubility kinetic of 2.1 µg/mL (≈ 4.7 µM). In the case of CCCCC(=O)Nc1ccccc1C(C)C, the solubility kinetic is reported as 23.3 µg/mL (≈ 106 µM). Work on CC(=O)c1sc(NC(=O)Cc2c(F)cccc2Cl)nc1C yielded a solubility kinetic of 8.2 µg/mL (≈ 25.1 µM). In the case of O=C(Nc1nccs1)C1(c2ccc(Cl)cc2)CC1, the solubility kinetic is reported as 14.2 µg/mL (≈ 50.9 µM). For COc1ccccc1N1C(=O)c2cccc3cccc(c23)C1=O, the solubility kinetic was less than 0.6 µg/mL. For Cc1ccc(CN2C(=O)C(C)Oc3ccccc32)cc1 (configuration not stated), the solubility kinetic was 4.7 µg/mL (≈ 17.6 µM). Cc1ccc(NC(=S)N2CCCCC2CO)cc1C (configuration not stated) gave a solubility kinetic greater than 41.8 µg/mL. Compound Cc1cc(NC(=O)Nc2ccc(Cl)c(Cl)c2)no1 has a solubility kinetic of less than 0.2 µg/mL. In the case of N#Cc1ccccc1OCC(=O)Nc1ccc2c(c1)OCCCO2, the solubility kinetic is reported as greater than 48.7 µg/mL.
